From PubChem BioAssay (NCI)
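The compound was tested at five concentrations on cells cultured in 96-well plates, with a 48-hour exposure period. GI50 = concentration required for 50% inhibition of growth. TGI: concentration producing complete growth inhibition.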

Experiments:
Assay in all cases: growth of human tumour cells (NCI), 48 h
SF-295 CNS = test system: SF-295 CNS
CCRF-CEM leukemia = test system: CCRF-CEM leukemia
UACC-62 melanoma = test system: UACC-62 melanoma
SK-MEL-5 melanoma = test system: SK-MEL-5 melanoma
HCC-2998 colon = test system: HCC-2998 colon
OVCAR-8 ovarian = test system: OVCAR-8 ovarian
NCI-H460 lung = test system: NCI-H460 lung
A549 NSCLC = test system: A549 NSCLC
SR leukemia = test system: SR leukemia
HCT-15 colon = test system: HCT-15 colon
SK-MEL-2 melanoma = test system: SK-MEL-2 melanoma
MALME-3M melanoma = test system: MALME-3M melanoma
OVCAR-3 ovarian = test system: OVCAR-3 ovarian
HS 578T breast = test system: HS 578T breast

SMILES | TGI (SF-295 CNS) [µM] | TGI (CCRF-CEM leukemia) [µM] | TGI (UACC-62 melanoma) [µM] | TGI (SK-MEL-5 melanoma) [µM] | TGI (HCC-2998 colon) [µM] | TGI (OVCAR-8 ovarian) [µM] | TGI (NCI-H460 lung) [µM] | TGI (A549 NSCLC) [µM] | TGI (SR leukemia) [µM] | TGI (HCT-15 colon) [µM] | TGI (SK-MEL-2 melanoma) [µM] | TGI (MALME-3M melanoma) [µM] | TGI (OVCAR-3 ovarian) [µM] | TGI (HS 578T breast) [nM] | GI50 (OVCAR-8 ovarian) [nM] | GI50 (A549 NSCLC) [nM]
O=C1c2ccccc2OP(=O)(OCC(F)(F)F)OC1(C(F)(F)F)C(F)(F)F (stereo not drawn) | > 100 | > 100 | > 100 | > 100 | > 100 | > 100 | > 100 | > 100 | > 100 | > 100 | > 100 | – | – | – | – | –
Nc1nc(SCc2ccc([N+](=O)[O-])cc2)nc2c1ncn2C1OC(CO)C(O)C1O (stereo not drawn) | > 100 | > 100 | – | > 100 | > 100 | > 100 | > 100 | > 100 | > 100 | > 100 | – | > 100 | > 100 | – | – | –
COc1ccc(N=Cc2ccc(N(CCC#N)S(=O)(=O)c3ccccc3)cc2)cc1 | > 100 | > 100 | > 100 | > 100 | – | > 100 | > 100 | > 100 | > 100 | > 100 | > 100 | > 100 | > 100 | – | – | –
C=CCNC(=O)N(CCCC(NC(C)=O)C(=O)NCc1ccccc1)Cc1ccccc1 (stereo not drawn) | > 100 | > 100 | > 100 | > 100 | – | > 100 | > 100 | > 100 | – | > 100 | > 100 | > 100 | > 100 | – | – | –
Cc1ccc(N2C(=O)CS/C2=C(\C#N)c2nc3ccccc3[nH]2)cc1 | – | > 100 | 82.7 | > 100 | > 100 | > 100 | > 100 | > 100 | > 100 | > 100 | > 100 | > 100 | > 100 | – | – | –
COc1ccc(CNC(=O)NCn2cc(-c3ccccc3)nn2)cc1 | > 100 | > 100 | – | > 100 | > 100 | > 100 | > 100 | > 100 | > 100 | > 100 | > 100 | > 100 | – | – | – | –
COc1cccc([C@H]2C/C(=N\NC(=O)C(=O)N[C@@H](C)c3ccccc3)c3ccccc3N2)c1 | > 100 | 3.09 | 0.0962 | 0.868 | 0.0495 | 1.05 | – | > 100 | – | > 100 | > 100 | – | > 100 | 88 | 28.5 | 36.6
CN1c2ccccc2N(C(=O)c2ccc(Cl)cc2)C(CC(=O)O)c2cccn21 (stereo not drawn) | > 100 | > 100 | > 100 | > 100 | > 100 | > 100 | > 100 | > 100 | – | > 100 | > 100 | > 100 | > 100 | – | – | –
CCC12CCCN(Cc3ccccc3)C1c1c(n(C)c3ccccc13)C(C(=O)OC)C2 (stereo not drawn) | 231 | > 239 | > 239 | 97.1 | > 239 | > 239 | > 239 | > 239 | > 239 | > 239 | > 239 | > 239 | 170 | – | – | –
N#Cc1c(-c2ccc([N+](=O)[O-])cc2)c(C#N)c(=O)n(NS(=O)(=O)c2ccccc2)c1-c1ccccc1 | > 100 | > 100 | > 100 | > 100 | > 100 | > 100 | > 100 | > 100 | – | > 100 | > 100 | > 100 | – | > 100000 | – | –
CC1CN(c2ccc(Cl)cc2)CC(C)OC(=O)O1 (stereo not drawn) | > 100 | > 100 | > 100 | > 100 | > 100 | > 100 | > 100 | > 100 | > 100 | > 100 | > 100 | > 100 | > 100 | – | – | –
CCOC(=O)/C=C/n1c2ccccc2c(=O)c2ccccc21 | > 100 | > 100 | > 100 | – | > 100 | > 100 | > 100 | > 100 | > 100 | > 100 | > 100 | > 100 | > 100 | – | – | –
N#C/C(c1nc2ccccc2[nH]1)=c1\s/c(=C/c2ccc(Cl)cc2)c(=O)n1-c1ccccc1 | – | > 100 | > 100 | > 100 | > 100 | > 100 | > 100 | > 100 | > 100 | > 100 | > 100 | > 100 | > 100 | – | – | –
CC(C)CC(NC(=O)OC(C)(C)C)C(=O)Nc1ccc(Nc2nc(F)nc(-c3c4ccccc4c4n3CCS4)n2)cc1 (stereo not drawn) | 35.9 | 16.9 | 31.9 | 41.2 | 35 | 38.3 | 36.5 | > 100 | 34.7 | 30.3 | 33.6 | 38.9 | 36.7 | – | – | –
